Test results published in patent US9751885B2, “Cyclopropanamine compound and use thereof” (Takeda Pharmaceutical Company Limited, priority 2012, dated 2017).
Counter-ions that a name gives are not always drawn. Like-named read-outs stand apart in the source and are kept apart here.

Columns and labels:
[1] = biological target: human LSD1(172-833) (Homo sapiens (Human), UniProt O60341); assay: Measurement of LSD1 inhibitory activity (time-resolved fluorescence, biotin-histone H3 mono methylated K4 peptide); assay type: biochemical
Outline: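 Remaining signal detected by TR-FRET after 60 min with europium anti-histone H3 antibody and streptavidin-XL665 in potassium fluoride/0.1% BSA.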

[2] = test system: white blood cell number, red blood cell number, platelet number; assay: Evaluation of blood cell number in mouse; assay type: in vivo; details: oral, Day 2 after administration
Protocol: Evaluation of Blood Cell Number in Mouse
(§1) Male ICR mice (hereinafter mice) were acclimated for at least one week in a rearing facility. The mice were raised in a rearing room with controlled temperature and humidity under a 12:12 hour light-dark cycle, and allowed free ingestion of feed and water.
The compounds were suspended in 0.5% methylcellulose/0.02% citric acid/distilled water and orally administered. All compounds were administered to the mice at a dose of 1 mg/kg, 10 mg/kg, 50 mg/kg or 100 mg/kg (body weight). On Day 2 after the administration of the compound, the whole blood was collected.
Using Sysmex XT-1800i (Sysmex Corporation), the white blood cell number, red blood cell number, and platelet number in the collected whole blood per unit volume were measured. The influence of each compound on each blood cell number was determined by comparing the number with the mean of each blood cell number of the mouse without administration of the compound (control group), and the numerical value of each blood cell number of a mouse with the administration of the compound is shown in percentage. percentage (%) of blood cell number of compound administration group as compared to control group=(mean blood cell number of compound administration group mean blood cell number of compound non-administration group)×100

[3] = biological target: MAO-A enzyme (Homo sapiens (Human), UniProt P21397); assay: Measurement of MAO-A inhibitory activity (MAO-Glo Assay); assay type: biochemical
[4] = biological target: MAO-B enzyme (Homo sapiens (Human), UniProt P27338); assay: Measurement of MAO-B inhibitory activity (MAO-Glo Assay); details: read-out: MAO-B IC50 value;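 further: luminescence read-out, compound preincubated 10 min with enzyme then reacted 60 min at room temperature, inhibition relative to enzyme reaction without compound, blank lacking enzyme and compound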
Protocol: The MAO-B inhibitory activity evaluation described below followed the protocol of MAO-Glo (registered trademark) Assay of Promega KK.
A test compound dissolved in 4% DMSO was added by 12.5 μL to 25 μL reaction solution (100 mM HEPES (pH 7.5), 5% glycerol, 10% DMSO) containing 400 ng of MAO-B enzyme (Sigma-Aldrich Co. LLC.), and the mixture was reacted at room temperature for 10 min. […] After reaction at room temperature for 60 min, Luciferine detection reagent (Promega KK) (50 μL) was added to terminate the reaction. After reaction at room temperature for 20 min with stirring, the luminescence was measured by Envision (PerkinElmer). The MAO-B inhibitory rate (%) of the test compound was calculated by the following formula. inhibitory rate(%)=(1−(test compound count−blank)÷(control−blank))×100
The count of the MAO-B enzyme reaction mixture under compound non-addition conditions is indicated as control, and the count under compound non-addition and MAO-B enzyme non-addition conditions is indicated as blank.

[5] = Evaluation of hippocampal distribution in mouse; assay type: in vivo; details: male ICR mice, 10 mg/kg oral, 0.5 hr after administration
Protocol: Evaluation of Hippocampal Distribution in Mouse
as §1
The compounds were suspended in 0.5% methylcellulose/0.02% citric acid/distilled water and orally administered. All compounds were administered to the mice at a dose of 10 mg/kg (body weight).
Blood samples were collected at 0.5 hr, or 1 hr, or 1.5 hr from compound administration, and the hippocampus was isolated simultaneously. The plasma concentration and hippocampus concentration of each test compound were measured by the LC/MS/MS method, the ratio (hippocampus/plasma concentration ratio) was calculated, and distribution into hippocampus was evaluated.

[6] = hippocampus, read-out: hippocampus concentration (mean)
[7] = plasma, read-out: plasma concentration (mean)

Chain of MAO-A enzyme (P21397 whole entry): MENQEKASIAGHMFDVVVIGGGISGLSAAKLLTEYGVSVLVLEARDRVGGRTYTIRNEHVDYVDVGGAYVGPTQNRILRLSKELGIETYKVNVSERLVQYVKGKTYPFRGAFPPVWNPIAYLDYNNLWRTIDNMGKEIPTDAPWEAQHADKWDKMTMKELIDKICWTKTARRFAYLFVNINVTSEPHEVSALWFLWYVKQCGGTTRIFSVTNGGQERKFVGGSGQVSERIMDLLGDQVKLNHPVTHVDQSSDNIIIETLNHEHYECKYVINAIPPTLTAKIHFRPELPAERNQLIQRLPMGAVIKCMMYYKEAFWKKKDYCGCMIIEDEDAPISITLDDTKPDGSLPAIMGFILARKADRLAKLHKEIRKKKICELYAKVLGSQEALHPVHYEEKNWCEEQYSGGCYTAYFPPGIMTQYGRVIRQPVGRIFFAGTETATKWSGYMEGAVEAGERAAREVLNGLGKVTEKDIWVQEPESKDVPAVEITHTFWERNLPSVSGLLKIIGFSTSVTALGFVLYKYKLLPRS
Chain of MAO-B enzyme (P27338 whole entry): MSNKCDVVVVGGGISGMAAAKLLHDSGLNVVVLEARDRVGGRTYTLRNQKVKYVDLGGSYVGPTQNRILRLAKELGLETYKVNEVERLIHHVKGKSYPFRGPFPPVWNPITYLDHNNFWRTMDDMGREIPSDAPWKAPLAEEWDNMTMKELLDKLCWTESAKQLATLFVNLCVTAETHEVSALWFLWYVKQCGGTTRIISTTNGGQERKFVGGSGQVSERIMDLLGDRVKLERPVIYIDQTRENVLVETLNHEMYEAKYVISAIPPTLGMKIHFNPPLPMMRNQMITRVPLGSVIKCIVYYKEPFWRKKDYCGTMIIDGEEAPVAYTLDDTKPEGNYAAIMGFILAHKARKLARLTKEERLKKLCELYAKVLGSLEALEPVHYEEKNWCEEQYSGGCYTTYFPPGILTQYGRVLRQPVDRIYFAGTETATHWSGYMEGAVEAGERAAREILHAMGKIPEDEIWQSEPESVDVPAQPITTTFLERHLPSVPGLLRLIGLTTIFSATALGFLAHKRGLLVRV

Structure (SMILES)	IC50 [1] [µM]	platelet number, percentage of compound administration group compared to control group, mean ([2]; 10 mg/kg) [%]	red blood cell number, percentage of compound administration group compared to control group, mean ([2]; 10 mg/kg) [%]	white blood cell number, percentage of compound administration group compared to control group, mean ([2]; 10 mg/kg) [%]	platelet number, percentage of compound administration group compared to control group, mean ([2]; 100 mg/kg) [%]	red blood cell number, percentage of compound administration group compared to control group, mean ([2]; 100 mg/kg) [%]	white blood cell number, percentage of compound administration group compared to control group, mean ([2]; 100 mg/kg) [%]	IC50 [3] [µM]	IC50 [4] [µM]	concentration at 0.5 h [5, 6] [ng/g]	concentration at 0.5 h [5, 7] [ng/mL]
Cc1ncc(NC(=O)c2cccc([C@@H]3C[C@H]3NCC3CC3)c2)s1 (relative stereo) [Example 79, 3-(trans-2-((cyclopropylmethyl)amino)cyclopropyl)-N-(2-methyl-1,3-thiazol-5-yl)benzamide dihydrochloride]	< 0.1	92.4	101.1	122.4	92.8	101.6	96.3	> 10	> 10	569	759
O=C(Nc1ccc(N2CCCC2=O)cc1)c1cccc([C@@H]2C[C@H]2NCC2CC2)c1 (relative stereo) [Example 82, 3-(trans-2-((cyclopropylmethyl)amino)cyclopropyl)-N-(4-(2-oxopyrrolidin-1-yl)phenyl)benzamide hydrochloride]	< 0.1	104.6	100.5	81.2	94.6	99.9	135.5	> 10	> 10	58	5610
CC(C)(C)CN[C@@H]1C[C@H]1c1cccc(C(=O)NC2CC(F)(F)C2)c1 (relative stereo) [Example 154, N-(3,3-difluorocyclobutyl)-3-(trans-2-((2,2-dimethylpropyl)amino)cyclopropyl)benzamide hydrochloride]	< 0.1	–	–	–	–	–	–	> 10	> 10	–	–
Cc1nnc(NC(=O)c2cccc([C@@H]3C[C@H]3NCC(C)(C)C)c2)s1 (relative stereo) [Example 158, 3-(trans-2-((2,2-dimethylpropyl)amino)cyclopropyl)-N-(5-methyl-1,3,4-thiadiazol-2-yl)benzamide dihydrochloride]	< 0.1	–	–	–	–	–	–	> 10	> 10	–	–
O=C(Nc1cnn(-c2ccc(F)cc2)c1)c1cccc([C@@H]2C[C@H]2NC2CCOCC2)c1 (relative stereo) [Example 196, N-(1-(4-fluorophenyl)-1H-pyrazol-4-yl)-3-(trans-2-(tetrahydro-2H-pyran-4-ylamino)cyclopropyl)benzamide dihydrochloride]	< 0.1	–	–	–	–	–	–	> 10	> 10	–	–
O=C(Nc1cnn(-c2ccc(F)cc2)c1)c1cccc([C@@H]2C[C@H]2NC2CCS(=O)(=O)CC2)c1 (relative stereo) [Example 197, 3-(trans-2-((1,1-dioxidotetrahydro-2H-thiopyran-4-yl)amino)cyclopropyl)-N-(1-(4-fluorophenyl)-1H-pyrazol-4-yl)benzamide dihydrochloride]	< 0.1	–	–	–	–	–	–	> 10	> 10	–	–
O=C(NC1CCCC1)c1cccc([C@@H]2C[C@H]2NC2CCN(C3CC3)CC2)c1 (relative stereo) [Example 199, N-cyclopentyl-3-(trans-2-((1-cyclopropylpiperidin-4-yl)amino)cyclopropyl)benzamide dihydrochloride]	< 0.1	–	–	–	–	–	–	> 10	> 10	–	–
CN1CCC(N[C@@H]2C[C@H]2c2cccc(C(=O)NC3CCCC3)c2)CC1 (relative stereo) [Example 200, N-cyclopentyl-3-(trans-2-((1-methylpiperidin-4-yl)amino)cyclopropyl)benzamide dihydrochloride]	< 0.1	–	–	–	–	–	–	> 10	> 10	–	–
O=C(Nc1cnn(CC2CC2)c1)c1cccc([C@@H]2C[C@H]2NC2CCC2)c1 (relative stereo) [Example 201, 3-(trans-2-(cyclobutylamino)cyclopropyl)-N-(1-(cyclopropylmethyl)-1H-pyrazol-4-yl)benzamide dihydrochloride]	< 0.1	–	–	–	–	–	–	> 10	> 10	–	–
CN1CCC(N[C@@H]2C[C@H]2c2cccc(C(=O)Nc3cnn(CC4CC4)c3)c2)CC1 (relative stereo) [Example 202, N-(1-(cyclopropylmethyl)-1H-pyrazol-4-yl)-3-(trans-2-((1-methylpiperidin-4-yl)amino)cyclopropyl)benzamide trihydrochloride]	< 0.1	–	–	–	–	–	–	> 10	> 10	–	–
O=C(Nc1cnn(CC2CC2)c1)c1cccc([C@@H]2C[C@H]2NC2CCC(F)(F)CC2)c1 (relative stereo) [Example 204, N-(1-(cyclopropylmethyl)-1H-pyrazol-4-yl)-3-(trans-2-((4,4-difluorocyclohexyl)amino)cyclopropyl)benzamide dihydrochloride]	< 0.1	–	–	–	–	–	–	> 10	> 10	–	–
O=C(NC1CCC(F)(F)CC1)c1cccc([C@@H]2C[C@H]2NC2CCN(C3CC3)CC2)c1 (relative stereo) [Example 208, 3-(trans-2-((1-cyclopropylpiperidin-4-yl)amino)cyclopropyl)-N-(4,4-difluorocyclohexyl)benzamide dihydrochloride]	< 0.1	–	–	–	–	–	–	> 10	> 10	–	–
Cc1ncc(NC(=O)c2cccc([C@@H]3C[C@H]3NC3CCC3)c2)s1 (relative stereo) [Example 210, 3-(trans-2-(cyclobutylamino)cyclopropyl)-N-(2-methyl-1,3-thiazol-5-yl)benzamide dihydrochloride]	< 0.1	–	–	–	–	–	–	> 10	> 10	–	–
Cc1ncc(NC(=O)c2cccc([C@@H]3C[C@H]3NC3CCC(F)(F)CC3)c2)s1 (relative stereo) [Example 211, 3-(trans-2-((4,4-difluorocyclohexyl)amino)cyclopropyl)-N-(2-methyl-1,3-thiazol-5-yl)benzamide dihydrochloride]	< 0.1	–	–	–	–	–	–	> 10	> 10	–	–
Cc1cc(NC(=O)c2cccc([C@@H]3C[C@H]3NC3CCC(F)(F)CC3)c2)on1 (relative stereo) [Example 216, 3-(trans-2-((4,4-difluorocyclohexyl)amino)cyclopropyl)-N-(3-methyl-1,2-oxazol-5-yl)benzamide hydrochloride]	< 0.1	–	–	–	–	–	–	> 10	> 10	–	–
O=C(Nc1cnn(Cc2ccc(F)cc2)c1)c1cccc([C@@H]2C[C@H]2NC2CCOCC2)c1 (relative stereo) [Example 217, N-(1-(4-fluorobenzyl)-1H-pyrazol-4-yl)-3-(trans-2-(tetrahydro-2H-pyran-4-ylamino)cyclopropyl)benzamide dihydrochloride]	< 0.1	–	–	–	–	–	–	> 10	> 10	–	–
CC(=O)N1CCC(N[C@@H]2C[C@H]2c2cccc(C(=O)Nc3cnn(Cc4ccc(F)cc4)c3)c2)CC1 (relative stereo) [Example 218, 3-(trans-2-((1-acetylpiperidin-4-yl)amino)cyclopropyl)-N-(1-(4-fluorobenzyl)-1H-pyrazol-4-yl)benzamide dihydrochloride]	< 0.1	–	–	–	–	–	–	> 10	> 10	–	–
O=C(NCC(c1ccccc1)N1CCOCC1)c1ccc(C2CC2NCC2CC2)cc1 (stereo not drawn) [Example 24, 4-(trans-2-((cyclopropylmethyl)amino)cyclopropyl)-N-(2-(morpholin-4-yl)-2-phenylethyl)benzamide bis(trifluoroacetate)]	< 0.1	–	–	–	–	–	–	> 10	> 10	–	–
